For the assay, the system named is MDA-MB-231 human breast cancer cells. Put plainly: Proliferation assay MDA-MB-231 (crystal violet). The conditions noted are these: 96 h, MDA-MB-231 cells, 4 days, read-out: Prolif-MDA MB231 IC50-[mol/l] (median). Format: cell-based. As to the method: Human tumour cells were originally obtained from the American Type Culture Collection (ATCC), or from the Deutsche Sammlung von Mikroorganismen und Zellkulturen (DSMZ, German Collection of Microorganisms and Cell Cultures). Cultivated tumour cells (CAL-120, human breast adenocarcinoma cells, DSMZ ACC-459; MDA-MB-231, human breast cancer cells, ATCC HTB-26) were plated at a density of 4,000 cells/well in a 96-well multititer plate in 200 microL of their respective growth medium supplemented 10% fetal calf serum. After 24 hours, the cells of one plate (zero-point plate) were stained with crystal violet (see below), while the medium of the other plates was supplemented with the test substances in various concentrations (0 micromol/L, as well as in the range of 0.01-10 micromol/L; the final concentration of the solvent dimethyl sulfoxide was adjusted to 0.1%) using a Tecan HP D300 Digital Dispenser. The cells were incubated for 4 days in the presence of test substances. Cell proliferation was determined by staining the cells with crystal violet: the cells were fixed by adding 20 microL/measuring point of an 11% glutaric aldehyde solution for 15 minutes at room temperature. After three washing cycles of the fixed cells with water, the plates were dried at room temperature. The cells were stained by adding 100 microL/measuring point of a 0.1% crystal violet solution (pH 3.0). After three washing cycles of the stained cells with water, the plates were dried at room temperature. The dye was dissolved by adding 100 microL/measuring point of a 10% acetic acid solution. The extinction was determined by photometry at a wavelength of 595 nm. The change of cell number, in percent, was calculated by normalization of the measured values to the extinction values of the zero-point plate (=0%) and the extinction of the untreated (0 μM) cells (=100%). The IC50 values (inhibitory concentration at 50% of maximal effect) were determined by means of a 4 parameter fit.
Consider `Fc1ccc2[nH]c(CNc3nc(N4CCOCC4)nn4c(Br)cnc34)nc2c1F` [Example 7, 7-bromo-N-[(4,5-difluoro-1H-benzimidazol-2-yl)methyl]-2-(morpholin-4-yl)imidazo[2,1-f][1,2,4]triazin-4-amine], for which the IC50 turned out to be 7.93 nM.
To `CN1CCN(c2nc(NCc3nc4ccccc4[nH]3)c3ncc(C(F)(F)F)n3n2)CC1` [Example 25, N-[(1H-benzimidazol-2-yl)methyl]-2-(4-methylpiperazin-1-yl)-7-(trifluoromethyl)imidazo[2,1-f][1,2,4]triazin-4-amine] belongs 13.2 nM; to `COc1cccc2[nH]c(CNc3nc(N4C[C@@H](C)N[C@@H](C)C4)nn4c(Br)cnc34)nc12` [Example 14, 7-bromo-2-[rel-(3R,5S)-3,5-dimethylpiperazin-1-yl]-N-[(4-methoxy-1H-benzimidazol-2-yl)methyl]imidazo[2,1-f][1,2,4]triazin-4-amine], 3.91 nM.
The figure for `Fc1cccc2[nH]c(CNc3nc(N4CCNCC4)nn4c(Br)cnc34)nc12` [Example 22, 7-bromo-N-[(4-fluoro-1H-benzimidazol-2-yl)methyl]-2-(piperazin-1-yl)imidazo[2,1-f][1,2,4]triazin-4-amine] is 4.41 nM.
On to `Fc1ccc2[nH]c(CNc3nc(N4CCOCC4)nn4c(C(F)(F)F)cnc34)nc2c1F` [Example 27, N-[(4,5-difluoro-1H-benzimidazol-2-yl)methyl]-2-(morpholin-4-yl)-7-(trifluoromethyl)imidazo[2,1-f][1,2,4]triazin-4-amine], for which the IC50 worked out at 1.91 nM.
To `COc1cccc2[nH]c(CNc3nc(N4CCN(C)CC4)nn4c(Br)cnc34)nc12.O=CO` [Example 16, 7-bromo-N-[(4-methoxy-1H-benzimidazol-2-yl)methyl]-2-(4-methylpiperazin-1-yl)imidazo[2,1-f][1,2,4]triazin-4-amine Formate (1/1)] belongs 13.1 nM; to `Fc1cccc2[nH]c(CNc3nc(N4CCOCC4)nn4c(Br)cnc34)nc12` [Example 12, 7-bromo-N-[(4-fluoro-1H-benzimidazol-2-yl)methyl]-2-(morpholin-4-yl)imidazo[2,1-f][1,2,4]triazin-4-amine], 111 nM; to `CN1CCN(c2nc(NCc3nc4ccccc4[nH]3)c3ncc(Br)n3n2)CC1` [Example 6, N-[(1H-benzimidazol-2-yl)methyl]-7-bromo-2-(4-methylpiperazin-1-yl)imidazo[2,1-f][1,2,4]triazin-4-amine], 71 nM.
To `C[C@@H]1CN(c2nc(NCc3nc4cc(F)ccc4[nH]3)c3ncc(Br)n3n2)C[C@H](C)N1` [Example 19, 7-bromo-2-[rel-(3R,5S)-3,5-dimethylpiperazin-1-yl]-N-[(5-fluoro-1H-benzimidazol-2-yl)methyl]imidazo[2,1-f][1,2,4]triazin-4-amine] belongs 2.73 nM; to `Brc1cnc2c(NCc3nc4ccccc4[nH]3)nc(N3CCNCC3)nn12` [Example 8, N-[(1H-benzimidazol-2-yl)methyl]-7-bromo-2-(piperazin-1-yl)imidazo[2,1-f][1,2,4]triazin-4-amine], 14.5 nM.
To `C[C@@H]1CN(c2nc(NCc3nc4c(F)c(F)ccc4[nH]3)c3ncc(Br)n3n2)C[C@H](C)N1` [Example 11, 7-bromo-N-[(4,5-difluoro-1H-benzimidazol-2-yl)methyl]-2-[rel-(3R,5S)-3,5-dimethylpiperazin-1-yl]imidazo[2,1-f][1,2,4]triazin-4-amine] belongs 0.948 nM; to `Fc1ccc2[nH]c(CNc3nc(N4CCOCC4)nn4c(Br)cnc34)nc2c1` [Example 20, 7-bromo-N-[(5-fluoro-1H-benzimidazol-2-yl)methyl]-2-(morpholin-4-yl)imidazo[2,1-f][1,2,4]triazin-4-amine], 3.73 nM.
Consider `C[C@@H]1CN(c2nc(NCc3nc4c(F)cccc4[nH]3)c3ncc(Br)n3n2)C[C@H](C)N1` [Example 18, 7-bromo-2-[rel-(3R,5S)-3,5-dimethylpiperazin-1-yl]-N-[(4-fluoro-1H-benzimidazol-2-yl)methyl]imidazo[2,1-f][1,2,4]triazin-4-amine], for which the IC50 is 3.45 nM.
The figure for `Fc1ccc2[nH]c(CNc3nc(N4CCNCC4)nn4c(Br)cnc34)nc2c1F` [Example 10, 7-bromo-N-[(4,5-difluoro-1H-benzimidazol-2-yl)methyl]-2-(piperazin-1-yl)imidazo[2,1-f][1,2,4]triazin-4-amine] is 2.49 nM.
To `COc1cccc2[nH]c(CNc3nc(N4CCOCC4)nn4c(Br)cnc34)nc12` [Example 13, 7-bromo-N-[(4-methoxy-1H-benzimidazol-2-yl)methyl]-2-(morpholin-4-yl)imidazo[2,1-f][1,2,4]triazin-4-amine] belongs 27.9 nM.
Regarding `C[C@@H]1CN(c2nc(NCc3nc4ccccc4[nH]3)c3ncc(Br)n3n2)C[C@H](C)N1` [Example 9, N-[(1H-benzimidazol-2-yl)methyl]-7-bromo-2-[rel-(3R,5S)-3,5-dimethylpiperazin-1-yl]imidazo[2,1-f][1,2,4]triazin-4-amine], the IC50 stood at 9.6 nM.
The figure for `CN(CC(C)(C)O)c1nc(NCc2nc3ccccc3[nH]2)c2ncc(C(F)(F)F)n2n1` [Example 30, 1-[{4-[(1H-benzimidazol-2-ylmethyl)amino]-7-(trifluoromethyl)imidazo[2,1-f][1,2,4]triazin-2-yl}(methyl)amino]-2-methylpropan-2-ol] is 17.3 nM; for `CN1CCN(c2nc(NCc3nc4cc(F)ccc4[nH]3)c3ncc(Br)n3n2)CC1` [Example 21, 7-bromo-N-[(5-fluoro-1H-benzimidazol-2-yl)methyl]-2-(4-methylpiperazin-1-yl)imidazo[2,1-f][1,2,4]triazin-4-amine] it is 19.7 nM.
The figure for `COc1cccc2[nH]c(CNc3nc(N4CCNCC4)nn4c(Br)cnc34)nc12` [Example 15, 7-bromo-N-[(4-methoxy-1H-benzimidazol-2-yl)methyl]-2-(piperazin-1-yl)imidazo[2,1-f][1,2,4]triazin-4-amine] is 5.65 nM; for `C[C@@H]1CN(c2nc(NCc3nc4ccccc4[nH]3)c3ncc(Br)n3n2)C[C@H](C)O1` [Example 4, N-[(1H-benzimidazol-2-yl)methyl]-7-bromo-2-[rel-(2R,6S)-2,6-dimethylmorpholin-4-yl]imidazo[2,1-f][1,2,4]triazin-4-amine] it is 59.2 nM; for `CN1CCN(c2nc(NCc3nc4c(F)cccc4[nH]3)c3ncc(Br)n3n2)CC1` [Example 23, 7-bromo-N-[(4-fluoro-1H-benzimidazol-2-yl)methyl]-2-(4-methylpiperazin-1-yl)imidazo[2,1-f][1,2,4]triazin-4-amine] it is 34.3 nM.
`C[C@@H]1CN(c2nc(NCc3nc4c(F)c(F)ccc4[nH]3)c3ncc(C(F)(F)F)n3n2)C[C@H](C)N1` [Example 29, N-[(4,5-difluoro-1H-benzimidazol-2-yl)methyl]-2-[rel-(3R,5S)-3,5-dimethylpiperazin-1-yl]-7-(trifluoromethyl)imidazo[2,1-f][1,2,4]triazin-4-amine]: the IC50 turned out to be 0.839 nM.
The figure for `CN1CCN(c2nc(NCc3nc4c(F)c(F)ccc4[nH]3)c3ncc(C(F)(F)F)n3n2)CC1` [Example 28, N-[(4,5-difluoro-1H-benzimidazol-2-yl)methyl]-2-(4-methylpiperazin-1-yl)-7-(trifluoromethyl)imidazo[2,1-f][1,2,4]triazin-4-amine] is 2.83 nM.
The figure for `FC(F)(F)c1cnc2c(NCc3nc4ccccc4[nH]3)nc(N3CCOCC3)nn12` [Example 26, N-[(1H-benzimidazol-2-yl)methyl]-2-(morpholin-4-yl)-7-(trifluoromethyl)imidazo[2,1-f][1,2,4]triazin-4-amine] is 7.21 nM; for `C[C@@H]1CN(c2nc(NCc3nc4ccccc4[nH]3)c3ncc(C(F)(F)F)n3n2)C[C@H](C)N1.O=CO` [Example 24, N-[(1H-benzimidazol-2-yl)methyl]-2-[rel-(3R,5S)-3,5-dimethylpiperazin-1-yl]-7-(trifluoromethyl)imidazo[2,1-f][1,2,4]triazin-4-amine Formate (1/1)] it is 1.52 nM.
